# Results as given in PubChem BioAssay (NCI).
# “And” between values parts separate entries of the source, which are not always exact repeats. Identical values can stand only once.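 These data come from cells grown in 96-well plates and exposed to compound for 48 hours at five concentrations. At the GI50, growth is halved. At the TGI there is no net growth.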
# System: MDA-MB-468 breast
# Assay: growth of human tumour cells (NCI), 48 h
SMILES,GI50,TGI
O=C1NC(=NCc2ccccc2)S/C1=C\c1ccc2ncccc2c1,> 16.2 µM,> 25 µM
CCOC(=O)n1cc(C2=C(c3ccc(OC)c(OC)c3)COC2=O)c2ccccc21,0.0357 µM,> 100 µM
OC(c1cc(C(F)(F)F)nc2c(C(F)(F)F)cccc12)C1CCCCN1 (stereo not drawn),1.63 µM,3.37 µM
Nc1nc2[nH]cc(CCc3ccc(C(=O)N[C@@H](CCC(=O)O)C(=O)O)cc3)c2c(=O)[nH]1,2.57 µM,> 100 µM
c1ccc(-c2n(Cc3ccc4ccccc4n3)cc[n+]2Cc2ccc3ccccc3c2)cc1,0.222 µM,1.09 µM
CN1CCN(C(=O)COc2ccc(C34CC5CC(CC(C5)C3)C4)cc2)CC1,9.12 µM,23.1 µM
CCN1C(=O)N(CC)C2SC(N/N=C/C=C/c3ccccc3OC)=NC21 (stereo not drawn),0.326 µM,48.9 µM
CC1(C)[C@@H](NOCCCN)CC[C@]2(C)[C@H]3C(=O)C=C4[C@@H]5C[C@](C)(C(=O)O)CC[C@]5(C)CC[C@@]4(C)[C@]3(C)CC[C@@H]12,2.36 µM,5.45 µM
CCN(CC)c1ccc(/C=N/NC(=O)c2ccc(S(N)(=O)=O)cc2)c(O)c1,0.258 µM,1.14 µM
C=C1C(=O)O[C@H]2[C@H]1CC/C(CNC(=O)c1cc3ccccc3[nH]1)=C\CC[C@@]1(C)O[C@@H]21,1.05 µM,3.6 µM
CCCCCCCCCCSC(=N)N (tested in a mixture with another compound),2.1 µM,4.86 µM
COC(=O)[C@]12CC[C@@H](C)[C@H](C)[C@@H]1C1=CC[C@@H]3[C@@]4(C)C[C@@H](O)[C@H](O)[C@@](C)(CO)[C@@H]4[C@H](O)C[C@@]3(C)[C@]1(C)CC2,10.5 µM,24.8 µM
COc1ccc(C(c2cc(OC)c(OC)c(OC)c2)n2cncn2)cc1O (stereo not drawn),0.371 µM,> 100 µM
C=CC(=O)Nc1cc(Nc2nccc(-c3cn(C)c4ccccc34)n2)c(OC)cc1N(C)CCN(C)C,0.0271 µM and 0.0472 µM,0.332 µM
Cc1cc(Nc2ccc(C)c(Cl)c2)n2nc(C(F)(F)F)nc2n1,18.7 µM,61.6 µM
COc1ccc(C2c3cc4c(cc3OC3(OC)COC(=O)C23)OCO4)c(OC)c1 (stereo not drawn),9.24 µM,> 100 µM
O=C1OCC2=C1C(c1cccc(Br)c1)c1cc3c(cc1N2CCO)OCCO3 (stereo not drawn),0.0258 µM,0.181 µM
CN1CCN(c2ccc(Nc3ncc(Cl)c(NC[C@@H]4CCCO4)n3)cc2)CC1,2.18 µM,6.64 µM
CCCCCCOc1ccc(/C=N/Nc2cc(C)nc3ccc(Cl)cc23)cc1,1.65 µM,3.13 µM
CC(C)[C@@H]1NC(=O)[C@]2(C)CSC(=N2)c2ccnc(c2)CNC(=O)C[C@@H](/C=C/CCS)OC1=O,0.569 µM,
COc1ccc2ncnc(Nc3ccc(OCc4ccccc4)cc3)c2c1,2.77 µM,9.08 µM
COc1ccccc1NC(=O)c1cc2cc(Br)ccc2cc1O,2.79 µM,7.87 µM
C#CC(=O)N(c1ccc(OC)cc1OC)C(C(=O)NCC(=O)OCC)c1cccs1 (stereo not drawn),0.316 µM,1.17 µM
CC(=C(c1ccc(OCCN2CCCCC2)cc1)c1ccc(OCCN2CCCCC2)cc1)c1ccc(Cl)cc1,0.402 µM,0.809 µM
COc1cc(-c2nn(-c3cccc(NC(=O)c4ccccc4)c3)cc2-c2ccncc2)ccc1Cl,0.349 µM,3.42 µM
COc1c2ccccc2c(OC)c2[nH]c(=O)ccc12,4.77 µM,> 91.7 µM

SMILES,GI50,TGI
Cc1ccc(S(=O)(=O)N2C3C=CC(C3)[C@@H]2C(Cl)(Cl)Cl)cc1 (stereo partly drawn),6.32 µM,33.1 µM
C=C1C[C@H](O)[C@H](Br)C(C)(C)[C@@]12CCC(C)=C(Cl)C2,0.0369 µM,0.397 µM
O=[N+]([O-])c1cc([N+](=O)[O-])c(C(F)(F)F)cc1NN=C(c1ccc(O)cc1)c1ccc(O)cc1,3.21 µM,15.4 µM
CN(C)CC(O)c1ccc(/C=C/c2ccc(Cl)cc2)cc1 (stereo not drawn),1.75 µM,3.83 µM
CC(C)(C)[Si](C)(C)OC1[C@@H](O[Si](C)(C)C(C)(C)C)[C@@H](CNC(=O)NC(=O)C(F)(F)F)O[C@H]1n1cnc2c(NC(=O)Nc3ccccc3)ncnc21 (stereo partly drawn),2.18 µM,9.16 µM
CC(=O)N[C@@H](Cc1ccc(OP(=O)(O)O)cc1)C(=O)N[C@H]1CCC(=O)N2CCC[C@@H](C(=O)Nc3cccc4ccccc34)N2C1=O,> 25 µM,> 25 µM
COc1cc(-c2nc3sccn3c2-c2ccnc(NCCNS(=O)(=O)c3ccc(F)cc3)n2)ccc1F,2.72 µM,> 100 µM
COC(=O)/C=C/c1cc(OC(C)=O)c2c(c1)[C@@H](C(=O)OC)[C@H](c1ccc(OC(C)=O)c(OC(C)=O)c1)O2,0.38 µM,13.7 µM
c1ccc(Nc2ncc(-c3ccccc3)o2)cc1,8.41 µM,> 25 µM
C#Cc1cccc(Nc2nc3cc([N+](=O)[O-])ccc3nc2Nc2ccc(O)cc2)c1,1.43 µM,3.26 µM
N=C(N)c1ccc(OCCCCCCCCCCOc2ccc(C(=N)N)cc2)cc1,0.414 µM,1.8 µM
NC(=S)N/N=C\c1nccc2c(C(F)(F)F)cccc12,0.199 µM,0.612 µM
CCCn1cnc2c(c1=N)C(c1ccc(F)cc1)c1sc3c(CC)cccc3c1O2 (stereo not drawn),0.35 µM,> 100 µM
CCNC(=O)C#Cc1ccc2c(C(=Nc3ccc(CN(C)C)cc3)c3ccccc3)c(O)[nH]c2c1,0.0621 µM,0.914 µM
O=C(Nc1cccc(C(F)(F)F)c1)Nc1cccc(C(F)(F)F)c1,0.675 µM,3.17 µM
Cc1ccc(NC2=C3CCCCC3OC2=O)cc1 (stereo not drawn),21.9 µM,> 100 µM
COc1cc(/C=C2\CN(S(=O)(=O)c3ccc(C)cc3)C/C(=C\c3cc(CN4CCCC4)c(O)c(OC)c3)C2=O)cc(CN2CCCC2)c1O,1.15 µM,2.65 µM
COc1ccc(Cn2c(Br)c3c(c2Br)-c2nc(N)sc2CC3)cc1,1.9 µM,14 µM
NCCNCCNCCN,> 100 µM,> 100 µM
O=C1c2ccccc2C(=O)c2c(/C=C\N3CCCCC3)ccnc21,12.9 µM,26.8 µM
CNC(=O)c1cc(Oc2ccc3nc(NC(=O)c4ccc(CN5CCCN(C)CC5)c(C(F)(F)F)c4)sc3c2)ccn1,1.19 µM,2.59 µM
Cc1ccc(-c2nc(N3CCNCC3)c3oc(-c4ccc(C)cc4)nc3n2)cc1,3.29 µM,> 21.8 µM
COCCn1cc(-c2nc(-c3cc4cccnc4[nH]3)cs2)c2cc(OC)ccc21,0.0317 µM,0.192 µM
CC[C@@H](c1ccc(O)c(O)c1)[C@@H](CC)c1ccc(O)c(O)c1,2.09 µM,5.51 µM
O=C(Nc1nn2c(-c3cc(C(F)(F)F)cc(C(F)(F)F)c3)nnc2s1)C1CCCC1,0.356 µM,4.35 µM
NC(=S)N/N=C1\c2cc(Cl)ccc2-c2c1cc(Cl)cc2[N+](=O)[O-],3.07 µM,9.03 µM
